The record followed here is patent US20130259882A1, “Conjugate of Folate and Antibody Preparation Method and Use Thereof” (priority 2010, published 2013).

Marks after values point to notes of the source that are not given here.

Assay [1] relates to rats with rheumatoid arthritis. In words: Complete Freund adjuvant induced rheumatoid arthritis model. Type of assay: in vivo, Wistar rat. Conditions: Diclofenac sodium 10 mg/kg orally.
Protocol: Rat IgG and complete Freund adjuvant are from Sigma. Diclofenac sodium enteric-coated tablets are from Beijing Novartis Pharma Ltd. RF detection kit is from Nanjing JianCheng Bioengineering Institute. • 2. Animal: 50 healthy and mature Wistar rat, both male and female, body weight 150˜200 g are provided by Wuhan University Laboratory Animal Center, China.
Diclofenac sodium positive control group were given 10 mg/kg Diclofenac sodium orally. Normal control group and model group were Intra-peritoneally injected equal amount of saline. The injections were performed once per day. After measurement of right foot volume on day 0, 0.1 ml complete Freund adjuvant was subcutaneously injected into right ankle. On day 21, the right foot volume was measured after the last injection. Rats were sacrificed with ether inhalation after taking blood samples. The blood samples were centrifuged to get serum for the detection of rheumatoid factor (RF).
Rheumatoid factors RF: 100 μl serum were used with RF detection kit.
Assay [2] deals with folate receptor transfected MCF-7 cells. The assay is described as follows: Breast cancer model: folate receptor transfected MCF-7 cells injected subcutaneously in mice, tumor volume and mean survival time. Type of assay: in vivo, nude mice.
Protocol: Animal: 50 healthy and mature female nude mice, body weight 18-22 g are provided by Nanjing University Model Animal Center.
By weight, the mice were randomly divided into normal control group, model group, Epirubicin positive control group, FIG 5 mg/kg group and 40 mg/kg group, FGIG 5 mg/kg group and 40 mg/kg group. 7 days before the beginning of the experiment, the mice were maintained with feed without folic acid. From day 0, model group, epirubicin positive control group, FIG 5 mg/kg group or 40 mg/kg group and FGIG 5 mg/kg group or 40 mg/kg group were subcutaneously injected with folate receptor transfected MCF-7 cells (1×10^6) each. From day 5, FIG 5 mg/kg group and FIG 40 mg/kg group were intra-peritoneally injected with FIG 5 mg/kg and 40 mg/kg, respectively). FGIG 5 mg/kg group and FGIG 40 mg/kg group were intra-peritoneally injected with FGIG (5 mg/kg and 40 mg/kg, respectively). Epirubicin positive control group were intra-peritoneally injected with Epirubicin (200 mg/kg). Normal control group and model group were intra-peritoneally injected equal amount of saline. The injections were performed once time every four days. 15 days after injection, the mice were fasting. The next day after treatment, tumor volume was measured with vernier caliper and mean survival time was also calculated.
Volume: solid tumor volume was calculated using the following formula: V=0.5×L×W×H.
The subject of assay [3] is mice with inflammatory bowel disease. In words: Acetic acid induced colitis (inflammatory bowel disease model). In kind it is in vivo, Kunming mice. As to conditions: Mesalazine 600 mg/kg orally.
Protocol: Mesalazine SR Granules are from Ethypharm (France). MPO detection kit is from Nanjing Jian-Cheng Bioengineering Institute. • 2. Animal: 50 healthy and mature male Kunming mice, body weight 18-22 g are provided by Nanjing University model animal center.
Mesalazine positive control group were given 600 mg/kg Mesalazine orally. Control group and model groups were i.p. injected with equal amount of saline. The injections were performed once per day.
Acetic acid stimulation was used to induce colitis. The mice were fasting on day 9, and on day 10, were anaesthetized with ether inhalation. Before injection, the intestinal was cleaned, with a polyethylene pipe containing 0.1 ml 6% acetic acid inserted about 1.5 cm into the anus.
Colon macroscopic damage index (CMDI): The entire colon was taken and scissored along the mesenteric. The adhesion, ulcer and congestion were scored by naked eye observation according to the Table 7. • 2. Myeloperoxidase (MPO): The tissues were weighted and homogenized (1:19, weight/volume) in Tris buffer. After homogenization and repeated freezing and thawing, the tissues were made to 5% homogenate. MPO detection was performed according to kit manufacturer's instructions and the protein level was detected using the Lowry method.

Consider `O=C(O)Cc1ccccc1Nc1c(Cl)cccc1Cl` [Diclofenac sodium], for which the Joint injury score in assay [1] (day 21) is listed as 0.6 ± 0.22. In addition, the “RF” value in assay [1] (rheumatoid factor in serum) stood at 15.2 ± 1.99 pg/mL. Moreover, the “Toe volume difference” value in assay [1] (right foot, day 21 vs day 0) was 0.090 ± 0.052 mL.
Turning to `COc1cccc2c1C(=O)c1c(O)c3c(c(O)c1C2=O)C[C@@](O)(C(=O)CO)C[C@@H]3O[C@H]1C[C@H](N)[C@@H](O)[C@H](C)O1` [Epirubicin], in assay [2] (Epirubicin 200 mg/kg i.p.), the “Mean survival time (days)” value is 9 ^▴▴ days. Moreover, the “Volume of tumor (cm^3)” value in assay [2] (Epirubicin 200 mg/kg i.p. every four days, day 16) was 6.18 ± 1.34 ^▴▴ cm^3.
Consider `Nc1ccc(O)c(C(=O)O)c1` [Mesalazine], for which, in assay [3], the “Colon coefficient (g/100 g)” value was 1.21 ± 0.13 g/100 g. In addition, in assay [3] (colon tissue), the “MPO (U/mg · pro.)” value came to 2.42 ± 0.11 U/mg · pro. This compound also registered an Inflammation rating level in assay [3] (score per Table 7) of 1.9 ± 0.5.
